We go through 2 molecules from paper PMC5062570 (Nature Communications, 2016).

Series [1] concerns the target T1, CatD (Homo sapiens, UniProt P07339). Description: CatD purified enzyme fluorescence polarization assay. It counts as biochemical. On the set-up: final maturation into a non-covalently associated heavy chain and light chain; purchased Sigma C8696; host or cells: human liver. The note with it: purified human enzyme, fluorescence polarization, substrate-based. As for the experimental part:
(§1) Purified enzyme inhibition of BACE1, BACE2, CatD and CatE was determined using fluorescence polarization (FP) assays. Briefly, purified enzymes were treated with test compounds (1% DMSO, 37 °C) in the presence of synthetic peptide substrates (150 nM) in 30 μl total volume of NaOAc buffer (100 mM, pH 4.5, 0.0001% Tween-20) in a 384-well plate. After incubation, reactions were stopped and substrate captured by the addition of 1.5 μM streptavidin, and FP measured with an EnVision plate reader (PerkinElmer, excitation 485 nm, emission 530 nm). […] BACE2 activity was assessed with 0.5 nM recombinant BACE2 (R&D Systems 4097-AS) and the same synthetic substrate used for BACE1, with a 1 h incubation time. […] CatE activity was assessed with 1.0 nM recombinant CatE (Creative BioMart CTSE-255H) and the same synthetic substrate used for CatD, with a 1.5 h incubation time.
Background: In fluorescence polarisation assays a small probe gives low polarisation when free and higher when bound to something large.
Target sequence in this assay (P07339 65-162 limits assumed): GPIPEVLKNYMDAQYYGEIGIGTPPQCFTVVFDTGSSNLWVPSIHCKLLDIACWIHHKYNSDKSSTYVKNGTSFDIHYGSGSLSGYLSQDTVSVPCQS
Target sequence in this assay (P07339 169-412 limits assumed): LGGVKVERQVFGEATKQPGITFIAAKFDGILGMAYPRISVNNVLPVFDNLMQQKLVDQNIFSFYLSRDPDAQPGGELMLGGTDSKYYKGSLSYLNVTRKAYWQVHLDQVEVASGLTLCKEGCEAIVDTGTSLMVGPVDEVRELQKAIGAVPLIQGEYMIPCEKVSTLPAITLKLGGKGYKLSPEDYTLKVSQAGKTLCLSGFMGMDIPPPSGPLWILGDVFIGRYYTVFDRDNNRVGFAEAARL

For series [2], the target named is T2, BACE1 (Homo sapiens, UniProt P56817). Description: BACE1 purified enzyme fluorescence polarization assay. It counts as biochemical. Also noted: His (C); made in house; host or cells: CHO-K1. The note with it: purified human enzyme, fluorescence polarization, peptide substrate. The method, then: as §1
Target sequence in this assay (P56817 46-457): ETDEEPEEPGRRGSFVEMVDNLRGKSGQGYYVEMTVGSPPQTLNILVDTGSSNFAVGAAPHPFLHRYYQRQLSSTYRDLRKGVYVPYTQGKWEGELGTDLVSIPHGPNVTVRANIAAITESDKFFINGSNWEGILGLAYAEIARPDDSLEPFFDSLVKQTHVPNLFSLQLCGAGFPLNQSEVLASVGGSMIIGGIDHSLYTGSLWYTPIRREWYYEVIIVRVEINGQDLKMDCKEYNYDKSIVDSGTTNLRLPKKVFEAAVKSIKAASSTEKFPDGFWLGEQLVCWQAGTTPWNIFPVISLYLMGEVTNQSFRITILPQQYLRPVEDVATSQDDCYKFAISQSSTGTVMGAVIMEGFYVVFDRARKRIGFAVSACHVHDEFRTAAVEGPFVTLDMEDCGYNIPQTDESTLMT
For series [3], the target named is T3, BACE2 (Homo sapiens, UniProt Q9Y5Z0).
T3 construct: purchased R&D Systems 4097-AS
T3 sequence (Q9Y5Z0 63-518): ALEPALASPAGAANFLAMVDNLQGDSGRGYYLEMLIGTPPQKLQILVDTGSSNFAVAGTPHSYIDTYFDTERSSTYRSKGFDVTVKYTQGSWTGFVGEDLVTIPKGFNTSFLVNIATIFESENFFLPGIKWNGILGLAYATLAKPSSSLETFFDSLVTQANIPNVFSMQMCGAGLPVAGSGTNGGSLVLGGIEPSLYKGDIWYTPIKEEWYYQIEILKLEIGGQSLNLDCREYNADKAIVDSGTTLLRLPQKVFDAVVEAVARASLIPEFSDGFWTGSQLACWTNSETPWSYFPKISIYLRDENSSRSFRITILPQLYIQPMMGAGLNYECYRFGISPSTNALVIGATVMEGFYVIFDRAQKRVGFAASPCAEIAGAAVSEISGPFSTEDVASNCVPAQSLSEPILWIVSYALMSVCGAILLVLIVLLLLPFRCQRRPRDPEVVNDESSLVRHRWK
The experiment in a line: BACE2 purified enzyme fluorescence polarization assay. The class given is biochemical. The note with it: purified human enzyme, fluorescence polarization. As for the experimental part:
as §1

Series [4] has as its target T2, BACE1. Description: PF-7802 labelling of HEK293T cells overexpressing BACE1. It counts as cell-based. Also noted: endogenous in cells; host or cells: H4 human neuroglioma cells overexpressing human APP695. The note with it: 1 μM PF-7802, in-gel fluorescence. The method, then:
(§2) Myc-DDK-tagged BACE1 and CatD were purchased as complementary DNA clones in the pCMV6-Entry vector (OriGene, catalogue nos RC209115 and RC200719). Site-directed mutagenesis was performed using the QuikChange II kit (Agilent) according to the manufacturer's protocols. For CatD M307A, forward primer 5′-[…]-3′ and its reverse complement primer were used. For CatD M309A, the forward primer was 5′-[…]-3′. Mutagenesis was confirmed by sequencing using primers provided by OriGene with the cDNA.
(§3) HEK-293T cells were plated at a density of 1 × 10^6 cells per well, allowed to adhere overnight and then transfected with Lipofectamine 3000 (Life Technologies) according to the manufacturer's protocol. […] Immunoblots were scanned using a LiCor Odyssey.
Target sequence in this assay (P56817 46-501): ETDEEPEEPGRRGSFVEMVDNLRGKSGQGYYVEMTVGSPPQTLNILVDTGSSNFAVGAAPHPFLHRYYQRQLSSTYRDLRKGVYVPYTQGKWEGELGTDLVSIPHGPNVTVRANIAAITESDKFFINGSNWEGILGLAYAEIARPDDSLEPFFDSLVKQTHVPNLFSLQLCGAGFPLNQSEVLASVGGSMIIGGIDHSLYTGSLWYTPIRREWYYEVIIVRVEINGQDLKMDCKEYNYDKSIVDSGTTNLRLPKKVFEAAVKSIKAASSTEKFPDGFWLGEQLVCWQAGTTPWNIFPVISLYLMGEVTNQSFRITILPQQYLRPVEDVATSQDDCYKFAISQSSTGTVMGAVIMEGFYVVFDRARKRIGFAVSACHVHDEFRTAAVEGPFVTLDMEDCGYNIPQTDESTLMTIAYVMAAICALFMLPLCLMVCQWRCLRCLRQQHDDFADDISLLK

A short description of series [5]: Microsomal stability. It counts as in vitro ADME.
For series [6], the target named is T1, CatD. The experiment in a line: PF-7802 labelling of HEK293T cells overexpressing CatD. The class given is cell-based. The note with it: 1 μM PF-7802, in-gel fluorescence. On the set-up: Myc-DDK (FLAG) (C); host or cells: HEK293T. As for the experimental part:
as §2, §3
Target sequence in this assay (P07339 65-412): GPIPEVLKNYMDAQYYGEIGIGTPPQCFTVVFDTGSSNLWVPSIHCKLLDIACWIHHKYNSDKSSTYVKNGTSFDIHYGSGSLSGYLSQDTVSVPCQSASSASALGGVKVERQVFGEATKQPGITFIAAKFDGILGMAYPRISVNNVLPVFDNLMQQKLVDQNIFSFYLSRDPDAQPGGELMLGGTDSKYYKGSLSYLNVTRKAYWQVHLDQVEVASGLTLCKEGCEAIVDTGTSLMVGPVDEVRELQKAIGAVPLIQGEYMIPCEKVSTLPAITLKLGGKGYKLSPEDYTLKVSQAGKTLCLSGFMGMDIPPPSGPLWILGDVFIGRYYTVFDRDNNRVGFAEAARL

For series [7], the target named is T2, BACE1. The experiment in a line: BACE1 biochemical cellular assay (sAPPβ ELISA in H4 cells overexpressing APP695). On the set-up: endogenous in cells; host or cells: H4 human neuroglioma cells overexpressing human APP695. The class given is cell-based. The note with it: sAPPβ ELISA, H4 neuroglioma cells with human wild-type APP. The method, then: Cellular inhibition of BACE1 was determined by measuring sAPPβ, the primary cleavage product of BACE-1, in H4 human neuroglioma cells overexpressing the wild-type human APP695. […] The colorimetric reaction was read by an EnVision plate reader (PerkinElmer).
(In general: In an ELISA, binding on a coated surface is turned into a signal by an enzyme label.)
Target sequence in this assay (P56817 46-501): as the sequence (P56817 46-501) above

Series [8] deals with retina. The note with it: mouse, in vivo; cited from earlier work.

With `C#CCOc1ccc(C(=O)c2ccc(COC[C@H]3C[C@H]4CSC(N)=N[C@@]4(c4ccc(F)cc4F)CO3)cc2)cc1` [PF-7802], the IC50 (commonly the point on the concentration scale where inhibition reaches its midpoint) in series [1] came to 1200 nM; in series [2], 44 nM; in series [3] it was 120 nM; in series [7], 320 nM. For the same molecule, the “PF-7802 labelling in HEK293T cells overexpressing BACE1” value in series [4] is given as “indistinguishable from a mock transfected control”. Further, in series [5], the “Microsomal stability” value is listed as “poor microsomal stability”. The “PF-7802 labelling in HEK293T cells overexpressing CatD” value in series [6] was “robust labelling of CatD was observed”.
Consider `C[C@@H](NC(=O)c1cc(C(=O)N[C@@H](Cc2ccccc2)[C@H](O)CNC2CC2)cc(N(C)S(C)(=O)=O)c1)c1ccccc1` [BACE1 inhibitor IV], for which the “Ocular pathology in wild-type mice” value in series [8] is “could also be induced in vivo in wild-type mice”.
